Here are results for 4 molecules from PMC4072025 (Cancer chemotherapy and pharmacology, 2013).

“Also recorded” adds a separate entry of the source.

For data set [1] the following is noted: cited from earlier work.
Data set [2] is described as follows: Part I dose escalation to define MTD and DLTs of lapatinib plus everolimus. It is filed as in vivo, human. The note with it: once daily po.
The nature of data set [3]: Steady-state lapatinib PK in plasma, alone and with everolimus.
Data set [4] concerns ER-positive breast cancer. The settings on record: ER-positive patients with breast cancer; cited from earlier work.
For data set [5] the following is noted: Phase I/II trial of everolimus and imatinib; cited from earlier work.
A short description of data set [6]: Steady-state everolimus PK in whole blood, alone and with lapatinib. The data set is classed as in vivo, human. The note with it: for Everolimus Tmax % change: p=0.06; for Tmax: Everolimus Tmax, mean (95% CI).
[7] abbreviates: Day 19 with everolimus vs Day 7 alone.
Setting [8] is: Day 19 with lapatinib vs Day 7 alone.

With `C#Cc1cccc(Nc2ncnc3cc(OCCOC)c(OCCOC)cc23)c1` [erlotinib], the “Pharmacokinetics of erlotinib with or without everolimus” value in data set [1] is reported as “similar”.
Broadly, the AUC is concentration integrated over time. A word on the AUC(0-inf): it is total exposure, with the tail of the curve extrapolated. Read a high AUC(0-inf) as high exposure. Regarding `CS(=O)(=O)CCNCc1ccc(-c2ccc3ncnc(Nc4ccc(OCc5cccc(F)c5)c(Cl)c4)c3c2)o1` [lapatinib], the “Maximum tolerated dose (MTD) of lapatinib in the combination” value in data set [2] (combined with everolimus 5 mg) is 1250 mg. In addition, the “Lapatinib Cmax” value in data set [3] (Day 19, lapatinib + everolimus, steady state, plasma, mean (95% CI)) is reported as 2520 (2020–3130) μg/L. Further, the “Lapatinib AUC 0-inf % change” value in data set [3] (setting [7]) is “essentially unchanged”; in data set [3] (Day 19 with everolimus vs Day 7 alone, listed as Lapatinib), “+10%”. The “Lapatinib Cmax % change” value in data set [3] (setting [7]) is listed as “+7%”. In addition, the “Lapatinib Tmax % change” value in data set [3] (setting [7]) is listed as “+33%”. Also, the “Mean lapatinib Ctrough at steady-state” value in data set [3] (alone) is reported as 800 (95% CI 600–1120) μg/L; in data set [3] (in combination with everolimus) it was 1060 (95% CI 760–1470) μg/L. Also, the AUC in data set [3] (human, plasma, oral) stood at 33900 ng·h/mL; in data set [3] (human, plasma, oral, 1250 mg) it was 37400 ng·h/mL. The molecule further showed an AUC(0-inf) in data set [3] (human, plasma, oral, 1250 mg) of 33900 ng·h/mL. Moreover, the “Differences in steady-state lapatinib PK with or without everolimus co-administration” value in data set [3] (paired t-test) is listed as “no significant influence; also recorded: not statistically significant”.
Turning to `C=C1C[C@@H]2[C@H](CC[C@]3(C)C(=O)CC[C@@H]23)[C@@]2(C)C=CC(=O)C=C12` [exemestane], the Progression-free survival in data set [4] was 2.8 months.
By Cmax is commonly meant the highest concentration seen after dosing. As usually defined, the Tmax is the time at which the peak concentration occurs. In the case of `CO[C@H]1C[C@@H]2CC[C@@H](C)[C@@](O)(O2)C(=O)C(=O)N2CCCC[C@H]2C(=O)O[C@H]([C@H](C)C[C@@H]2CC[C@@H](OCCO)[C@H](OC)C2)CC(=O)[C@H](C)/C=C(\C)[C@@H](O)[C@@H](OC)C(=O)[C@H](C)C[C@H](C)/C=C/C=C/C=C/1C` [everolimus], the “Maximum tolerated dose (MTD) of everolimus in the combination” value in data set [2] (combined with lapatinib 1250 mg) amounted to 5 mg. Besides, in data set [5], the “Increase of everolimus Cmax by imatinib” value is given as 2.2 fold and the “Increase of everolimus mean AUC by imatinib” value is reported as 3.7 fold. Besides, in data set [1], the “Systemic exposure to everolimus, higher with erlotinib than without” value is 17%. In addition, in data set [6] (setting [8]), the “Everolimus AUC 0-inf % change” value is reported as “+26%”, the “Everolimus Cmax % change” value is −5% and the “Everolimus Tmax % change” value is given as 44%. Further, the “Everolimus Tmax % change” value in data set [6] (Day 19 with lapatinib vs Day 7 alone, listed as Everolimus) is “+44%”. The “Mean everolimus CL/F at steady-state” value in data set [6] (alone) is recorded as 19 (95% CI 14–24) L/hr. Moreover, in data set [6] (human, whole blood, oral, 5 mg), the AUC amounted to 348 ng·h/mL, the AUC(0-inf) is 348 ng·h/mL and the concentration peaked (Cmax) at 37 ng/mL. The Tmax in data set [6] (human, whole blood, oral, 5 mg, Day 7, everolimus alone) turned out to be 1.6 h. In addition, the Tmax in data set [6] (human, whole blood, oral, Day 19, everolimus + lapatinib) is 2.3 h. Also, the “Mean everolimus CL/F at steady-state” value in data set [6] (in combination with lapatinib) was 14 (95% CI 11–18) L/hr. Moreover, in data set [6] (in combination with lapatinib vs alone, p=0.08), the “Decrease of mean everolimus CL/F” value was found to be 25%. For the same molecule, the “PK differences when everolimus was given in combination with lapatinib” value in data set [6] (paired t-test) is recorded as “did not reach statistical significance”.
